According to article PMC7144330, “2-Thiopyrimidine/chalcone hybrids: design, synthesis, ADMET prediction, and anticancer evaluation as STAT3/STAT5a inhibitors” (Journal of Enzyme Inhibition and Medicinal Chemistry, 2020):
Where two headings read alike, the source gives them in different places.

How the values were obtained:
[1] = tested on: K-562; assay: MTT cytotoxic assay, leukaemia K-562 cell line; type: cell-based; conditions: Homo sapiens, K562, read-out: (IC50 μM)±SD K-562
Procedure: (§1) To investigate cytotoxic activity of the final target compounds 9a–r, MTT assay was performed. Three different cell lines were used, leukaemia (K-562), breast (MCF-7) and colon (HT-29) cell lines. Cisplatin and erlotinib were the reference drugs used in this study.
(§2) All target compounds 9a–r were screened against three different cancer cell lines, leukaemia (K-562), breast (MCF-7), and colon (HT-29). MTT assay was used. Both cisplatin and erlotinib were used as the reference drugs. Cytotoxicity results are recorded in Table 1.

[2] = tested on: MCF-7; assay: MTT cytotoxic assay, breast MCF-7 cell line; type: cell-based, human; conditions: Homo sapiens, MCF7, read-out: (IC50 μM)±SD MCF-7
Procedure: as §1, §2

[3] = tested on: HT-29; assay: MTT cytotoxic assay, colon HT-29 cell line; type: cell-based; conditions: Homo sapiens, read-out: (IC50 μM)±SD HT-29
Procedure: as §1, §2

[4] = biological target: T1, STAT3 (Homo sapiens, UniProt P40763); assay: TransAM STAT3 activation assay on nuclear extracts of treated cells; type: cell-based; conditions: 24 h, read-out: Inhibition IC50 (µM) STAT3
T1 construct: endogenous in cells; host or cells: K-562 and MCF-7 cells (nuclear extracts)
T1 sequence (P40763 whole entry): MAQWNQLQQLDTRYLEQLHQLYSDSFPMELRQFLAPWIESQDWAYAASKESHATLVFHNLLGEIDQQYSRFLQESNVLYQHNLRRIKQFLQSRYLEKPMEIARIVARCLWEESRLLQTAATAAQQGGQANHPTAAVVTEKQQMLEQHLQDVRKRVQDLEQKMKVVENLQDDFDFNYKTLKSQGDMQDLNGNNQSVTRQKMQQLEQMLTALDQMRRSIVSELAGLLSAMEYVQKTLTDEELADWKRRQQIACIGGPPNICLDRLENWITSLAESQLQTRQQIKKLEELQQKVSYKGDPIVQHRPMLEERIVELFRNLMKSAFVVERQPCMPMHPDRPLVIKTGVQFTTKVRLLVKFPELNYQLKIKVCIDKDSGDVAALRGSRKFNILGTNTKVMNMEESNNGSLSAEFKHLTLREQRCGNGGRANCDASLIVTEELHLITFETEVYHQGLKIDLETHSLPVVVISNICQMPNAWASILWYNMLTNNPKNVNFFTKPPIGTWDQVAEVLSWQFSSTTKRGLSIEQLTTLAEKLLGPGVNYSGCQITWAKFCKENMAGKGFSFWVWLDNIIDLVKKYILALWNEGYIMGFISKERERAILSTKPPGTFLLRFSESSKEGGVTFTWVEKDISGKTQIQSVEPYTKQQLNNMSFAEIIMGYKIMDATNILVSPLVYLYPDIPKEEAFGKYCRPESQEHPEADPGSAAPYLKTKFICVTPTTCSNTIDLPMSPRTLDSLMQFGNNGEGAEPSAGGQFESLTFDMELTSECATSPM
Procedure: (§3) Both K-562 and MCF-7 cell lines were seeded overnight in plates, then 10 µM of test compounds (9a and 9r for MCF-7 cells; 9d, 9f, and 9n for K-562 cells) or reference drug pacritinib was added for 24 h. A nuclear extract kit was used to extract nuclear fractions from treated cells using the manufacture’s procedure. STAT3 and STAT5a activations were analysed using the collected nuclear extracts (20 µg) through TransAM STAT3 and STAT5a activation assay guided by the manufacture’s protocol. The obtained results were expressed in the form of mean ± SD. Each experiment was done in triplicate.
(§4) Pacritinib, an inhibitor for both STAT3 and STAT5a[49] was used in this study as a reference drug.

[5] = biological target: T2, STAT5a (Homo sapiens, UniProt P42229); assay: TransAM STAT5a activation assay on nuclear extracts of treated cells; type: cell-based; conditions: 24 h, read-out: Inhibition IC50 (µM) STAT5a
T2 construct: endogenous in cells; host or cells: K-562 and MCF-7 cells (nuclear extracts)
T2 sequence (P42229 1-794): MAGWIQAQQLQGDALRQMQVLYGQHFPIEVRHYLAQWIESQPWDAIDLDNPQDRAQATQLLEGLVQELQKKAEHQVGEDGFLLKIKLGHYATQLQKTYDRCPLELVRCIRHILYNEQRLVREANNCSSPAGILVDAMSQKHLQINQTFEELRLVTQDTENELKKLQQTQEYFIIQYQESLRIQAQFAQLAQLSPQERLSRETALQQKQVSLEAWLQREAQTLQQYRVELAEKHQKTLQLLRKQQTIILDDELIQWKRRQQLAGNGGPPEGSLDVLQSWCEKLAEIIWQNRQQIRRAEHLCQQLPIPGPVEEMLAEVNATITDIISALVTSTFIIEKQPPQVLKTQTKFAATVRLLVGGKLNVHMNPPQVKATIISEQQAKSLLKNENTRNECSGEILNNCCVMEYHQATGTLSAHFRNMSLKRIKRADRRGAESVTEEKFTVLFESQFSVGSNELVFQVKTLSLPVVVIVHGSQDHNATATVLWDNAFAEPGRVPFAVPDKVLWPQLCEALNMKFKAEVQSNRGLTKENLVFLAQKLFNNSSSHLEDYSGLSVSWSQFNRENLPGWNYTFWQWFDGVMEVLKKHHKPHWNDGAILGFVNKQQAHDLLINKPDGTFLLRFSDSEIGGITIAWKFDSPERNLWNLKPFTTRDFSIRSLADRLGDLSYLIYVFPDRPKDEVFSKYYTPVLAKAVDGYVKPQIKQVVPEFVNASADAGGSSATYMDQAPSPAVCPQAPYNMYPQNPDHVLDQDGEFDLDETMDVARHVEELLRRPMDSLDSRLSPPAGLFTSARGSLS
Procedure: as §3, §4

[6] = in vitro; conditions: human
[7] = tested on: STAT3; set-up: method as in PMID 20067773; conditions: breast cancer cells; read-out: EC50, inhibition of STAT3 function; cited from earlier work
[8] = tested on: STAT3; set-up: method as in PMID 20067773; conditions: myeloma cancer cells; read-out: EC50, inhibition of STAT3 function; cited from earlier work
[9] = tested on: human leukaemia cells; set-up: method as in earlier work; conditions: read-out: CC50, cytotoxic activity; cited from earlier work

melting point [°C]	IC50 [6] [µM]	Structure (SMILES)	IC50 [1] [µM]	IC50 [2] [µM]	IC50 [3] [µM]	CC50 [9] [µM]	other results
147 to 149	29.2 to 40.1	COc1ccc(/C=C/C(=O)c2ccc(NC(=O)CSc3nc(-c4ccc(Cl)cc4)cc(-c4ccc([N+](=O)[O-])cc4)n3)cc2)cc1OC [Compound 9n, (ZE)-2-[4-(4-Chlorophenyl)-6-(4-nitrophenyl)pyrimidin-2-ylthio]-N-{4-[3-(3,4-dimethoxyphenyl)acryloyl]phenyl}acetamide]	1.05 ± 0.02	17.4 ± 0.75	2.1 ± 0.06		IC50 ([4]; K562 cells): 113 ± 3.22 µM; IC50 ([5]; K562 cells): 50.7 ± 1.26 µM
221 to 223	29.2 to 40.1	COc1cc(/C=C/C(=O)c2ccc(NC(=O)CSc3nc(-c4ccc(Cl)cc4)cc(-c4ccc(OCCCl)cc4)n3)cc2)cc(OC)c1OC [Compound 9r]	10.7 ± 0.77	1.37 ± 0.07	4.74 ± 0.27		IC50 ([4]; MCF7 cells): 149 ± 3.81 µM; IC50 ([5]; MCF7 cells): 63.2 ± 1.57 µM
		Cc1cccc(Nc2ccccc2C(=O)Nc2ccc(C(=O)/C=C/c3ccc(Cl)cc3)cc2)c1C [chloro-derivative of compound X]				2.17	
		Cc1cccc(Nc2ccccc2C(=O)Nc2ccc(C(=O)/C=C/c3ccc(N(C)C)cc3)cc2)c1C [dimethylamino-derivative of compound X]				2.06	
